{
  "source": "patent US12318380B2",
  "about": "“Treatment of demyelinating diseases” (priority 2018, dated 2025)",
  "key": {"EAE model": {"tested_on": "EAE model", "conditions": "10 mg/kg starting at the time of immunization; cited from earlier work"}, "EAE-induced weight loss": {"experiment": "EAE-induced weight loss", "format": "in vivo, female C57BL/6 mice", "conditions": "0.3, 0.1 or 0.03 mg/kg i.p. daily from day 17"}, "[1]": {"tested_on": "infiltrating immune cells (CD45high) in the brain", "experiment": "Immune cell infiltration into the brain in EAE (flow cytometry)", "format": "in vivo, female C57BL/6 mice"}, "[2]": {"tested_on": "myelin in spinal cord of EAE mice", "experiment": "TEM of spinal cord sections in EAE", "format": "in vivo, female C57BL/6 mice", "conditions": "0.03 mg/kg i.p. daily from day 17; day 45"}, "[3]": {"experiment": "Weight change in cuprizone model of demyelination", "format": "in vivo, female C57BL/6 mice"}, "[4]": {"tested_on": "cuprizone model of demyelination", "experiment": "Rotarod assay in cuprizone model of demyelination", "format": "in vivo, female C57BL/6 mice", "conditions": "0.1 mg/kg i.p. daily from week 4"}, "[5]": {"tested_on": "myelin in corpus callosum of cuprizone-treated mice", "experiment": "TEM of corpus callosum in cuprizone model (g-ratio, myelinated axons, myelin area)", "format": "in vivo, female C57BL/6 mice"}, "[6]": {"tested_on": "myelin in spinal cord of EAE mice", "experiment": "Luxol fast blue staining of spinal cord in EAE", "format": "in vivo, female C57BL/6 mice", "conditions": "chronic phase"}, "[7]": {"tested_on": "lymphocyte populations in the spleen", "experiment": "Splenocyte flow cytometry in chronic phase of EAE", "format": "in vivo, female C57BL/6 mice", "conditions": "0.01 mg/kg i.p. daily from disease onset; 27 days post treatment initiation"}, "[8]": {"target": "T1, kappa opioid receptor (KOR) (Mus musculus, UniProt P33534)", "T1 construct": "from tissue; host or cells: whole animal: female C57BL/6 mice (EAE model)", "T1 sequence (P33534 whole entry)": "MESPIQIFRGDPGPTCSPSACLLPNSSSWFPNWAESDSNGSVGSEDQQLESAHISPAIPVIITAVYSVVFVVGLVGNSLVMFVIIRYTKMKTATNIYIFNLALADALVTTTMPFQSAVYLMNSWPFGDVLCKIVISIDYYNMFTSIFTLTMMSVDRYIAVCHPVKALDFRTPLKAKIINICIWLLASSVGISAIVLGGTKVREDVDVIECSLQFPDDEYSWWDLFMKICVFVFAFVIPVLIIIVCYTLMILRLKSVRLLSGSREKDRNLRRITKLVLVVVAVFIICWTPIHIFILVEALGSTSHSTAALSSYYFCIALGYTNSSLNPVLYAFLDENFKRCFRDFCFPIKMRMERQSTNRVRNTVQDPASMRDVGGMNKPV", "experiment": "EAE with KOR antagonist norBNI", "format": "in vivo, female C57BL/6 mice"}, "[9]": {"tested_on": "leucocyte infiltration into the spinal cord", "experiment": "H&E staining of spinal cord for leucocyte infiltration in EAE", "format": "in vivo, female C57BL/6 mice", "conditions": "0.01 mg/kg i.p. daily from disease onset; chronic phase"}, "[10]": {"tested_on": "activated GFAP+ astrocytes in the spinal cord", "experiment": "GFAP immunohistochemistry of spinal cord in EAE", "format": "in vivo, female C57BL/6 mice", "conditions": "0.01 mg/kg i.p. daily from day 17; day 45"}, "[11]": {"tested_on": "cuprizone demyelination disease model of MS", "experiment": "von Frey mechanical withdrawal threshold in cuprizone model", "format": "in vivo, female C57BL/6 mice", "conditions": "0.1 mg/kg/i.p. daily from day 28 or 35"}, "[12]": {"tested_on": "Substance P induced scratch", "conditions": "cited from earlier work"}, "Morphine induced scratch": {"tested_on": "Morphine induced scratch", "conditions": "SC; Winfuran assessment report EMA/CHMP/138212/2014; cited from earlier work"}, "[13]": {"tested_on": "Histamine induced scratch", "conditions": "PO; Togashi et al. (2002); cited from earlier work"}, "itch": {"tested_on": "itch", "conditions": "in vivo; cited from earlier work"}, "[14]": {"conditions": "0.1 mg/kg/i.p. daily from day 28, day 70"}, "[15]": {"conditions": "nalfurafine 0.1 mg/kg/i.p. or U-50488 1.6 mg/kg/i.p. daily from day 28, day 70"}, "[16]": {"conditions": "norBNI 10 mg/kg i.p. weekly with nalfurafine 0.01 mg/kg i.p. daily"}},
  "note": "Counter-ions that a name gives are not always drawn. Like-named read-outs stand apart in the source and are kept apart here.",
  "data": [
    {"smiles": "CN1CCC[C@@H]1CCO[C@](C)(c1ccccc1)c1ccc(Cl)cc1", "note": "[clemastine fumarate]", "values": [
      {"measurement": "chronic disability in the EAE model", "setting": "EAE model", "value": "has been shown to reduce chronic disability in the EAE model"}
    ]},
    {"smiles": "CN(C(=O)/C=C/c1ccoc1)[C@@H]1CC[C@@]2(O)[C@H]3Cc4ccc(O)c5c4[C@@]2(CCN3CC2CC2)[C@H]1O5", "note": "[nalfurafine, (E)-N-[(4R,4aS,7R,7aR,12bS)-3-(cyclopropylmethyl)-4a,9-dihydroxy-1,2,4,5,6,7,7a,13-octahydro-4,12-methanobenzofuro[3,2-e]isoquinoline-7-yl]-3-(furan-3-yl)-N-methylprop-2-enamide]", "values": [
      {"measurement": "% change in body weight", "setting": "EAE-induced weight loss", "value": "mice recover from EAE-induced weight loss"},
      {"measurement": "number of infiltrating immune cells in brain (ratio to microglia)", "setting": "[1]; 0.03 mg/kg i.p. daily from day 17, day 45", "value": "significantly reduced the number of infiltrating immune cells"},
      {"measurement": "number of infiltrating immune cells in brain (ratio to microglia)", "setting": "[1]; 0.03 and 0.01 mg/kg i.p. daily from disease onset, chronic phase (>24 days)", "value": "significantly reduced the number of infiltrating immune cells"},
      {"measurement": "myelination of nerve axons in spinal cord (TEM)", "setting": "[2]", "value": "nerve axons appear healthy and well-myelinated"},
      {"measurement": "% weight change", "setting": "[3]; 0.3% cuprizone 5 weeks, 0.1 mg/kg i.p. daily from week 4, 65 days (Example 7)", "value": "reversed significantly more effectively by administration of nalfurafine than vehicle alone"},
      {"measurement": "% weight change in recovery phase", "setting": "[3]; 0.3% cuprizone 35 days, nalfurafine 0.1 mg/kg or U-50488 1.6 mg/kg i.p. daily from day 28 (Example 28)", "value": "enhances recovery of the lost weight faster"},
      {"measurement": "rotarod performance at week 9 relative to week 5", "setting": "[4]", "value": "Cuprizone-induced disability was reversed"},
      {"measurement": "myelin in corpus callosum (TEM)", "setting": "[5]; 0.1 mg/kg i.p. daily from week 4, day 65 (Example 9)", "value": "more myelin was detected, and the structure was less disorganized"},
      {"measurement": "area of myelination", "setting": "[5]; [14]", "value": "percentage increase in area of myelination"},
      {"measurement": "number of myelinated axons", "setting": "[5]; [14]", "value": "percentage increase in the number of myelinated axons"},
      {"measurement": "axonal-myelin ultrastructure, repair", "setting": "[5]; [15]", "value": "surprisingly similar to that of the naïve (normal) tissue"},
      {"measurement": "mean g-ratio", "setting": "[5]; [15]", "value": "0.75±0.15"},
      {"measurement": "lesion load and myelin density in ventral horn (luxol fast blue)", "setting": "[6]; 0.01 mg/kg i.p. daily from disease onset", "value": "reduces this lesion load and demyelination"},
      {"measurement": "% demyelination of spinal cord (luxol fast blue)", "setting": "[6]; 0.03 or 0.01 mg/kg i.p. daily from disease onset", "value": "significant reduction in the percentage of demyelination"},
      {"measurement": "Teff:cm ratio (effector to central memory CD4 T cells)", "setting": "[7]", "value": "reduced ratio in the nalfurafine-treated compared to the vehicle-treated mice"},
      {"measurement": "overall number of CD4 T cells in spleen", "setting": "[7]", "value": "the same between nalfurafine and vehicle treated mice"},
      {"measurement": "proportion of major lymphocyte populations in spleen (% live leukocytes)", "setting": "[7]", "value": "do not alter the proportion of the major lymphocyte populations in the spleen"},
      {"measurement": "disease reduction in the presence of norBNI", "setting": "[8]; nalfurafine 0.01 mg/kg i.p. daily with norBNI 10 mg/kg i.p. weekly", "value": "effective at reducing disease independently of the KOR"},
      {"measurement": "leucocyte infiltration score (0-3), H&E", "setting": "[9]", "value": "surprising reduction of infiltrating leucocytes"},
      {"measurement": "number of activated GFAP+ astrocytes per section", "setting": "[10]", "value": "significantly reduces the number of activated astrocytes"},
      {"measurement": "mechanical threshold scores vs vehicle", "setting": "[11]", "value": "improved mechanical threshold scores compared to vehicle treated mice"},
      {"measurement": "mechanical withdrawal threshold, pre vs post treatment", "setting": "[11]", "value": "reduced to baseline levels"},
      {"measurement": "Complete Inhibition", "setting": "[12]; IV, Winfuran assessment report EMA/CHMP/138212/2014", "value": "7.5-10^ μg/kg"},
      {"measurement": "Inhibition printed in brackets beside the dose", "setting": "[12]; PO, 100 μg/kg, Winfuran assessment report EMA/CHMP/138212/2014", "value": 66, "unit": "%"},
      {"measurement": "Complete Inhibition", "setting": "[12]; PO, Togashi et al. (2002)", "value": 100, "unit": "µg/kg"},
      {"measurement": "Complete Inhibition", "setting": "[12]; PO, Winfuran assessment report EMA/CHMP/138212/2014", "value": 100, "unit": "µg/kg"},
      {"measurement": "Complete Inhibition", "setting": "[12]; SC, Winfuran assessment report EMA/CHMP/138212/2014", "value": 10, "unit": "µg/kg"},
      {"measurement": "Complete Inhibition", "setting": "Morphine induced scratch", "value": "5 to 10", "unit": "µg/kg"},
      {"measurement": "ED50", "setting": "[13]", "value": 7.3, "unit": "µg/kg"},
      {"measurement": "effective dose in humans for itch", "setting": "itch", "value": 2.5, "unit": "μg/body/day"}
    ]},
    {"smiles": "Oc1ccc2c3c1O[C@H]1c4[nH]c5c(c4C[C@@]4(O)[C@@H](C2)N(CC2CC2)CC[C@]314)C[C@@]1(O)[C@H]2Cc3ccc(O)c4c3[C@@]1(CCN2CC1CC1)[C@H]5O4", "note": "[norBNI]", "values": [
      {"measurement": "disease score, full recovery (score <0.5)", "setting": "[8]; [16]", "value": "abolishes the ability of nalfurafine to enable full recovery from paralysis"},
      {"measurement": "percentage recovered and number of days in recovery", "setting": "[8]; [16]", "value": "abolishes the ability of nalfurafine to enable and sustain recovery from paralysis"}
    ]}
  ]
}
